Columns and labels:
Type in all cases: biochemical
CDK1/CycB1 = target: T1, CDK1/CycB1 (Homo sapiens, UniProt P06493); experiment: ProQinase WT Profiler radiometric protein kinase assay; settings: non standard IC50 from 4 concentrations, kinase 7 nM, ATP 1 μM
T1 construct: purchased ProQinase
Procedure: (§1) Kinase inhibition profile of compound is determined by measuring residual activity values at four concentrations in singlicate in 320 wild-type protein kinase assays. The compounds are tested at 20 μM, 2 μM, 0.2 μM and 0.02 μM in singlicate. The final DMSO concentration in all reaction cocktails (including high and low controls) is 1%.
(§2) A radiometric protein kinase assay (33PANQINASE® Activity Assay, ProQinase) is used for measuring the kinase activity of the 320 protein kinases. All kinase assays are performed in 96-well FLASHPLATES™ in a 50 μL reaction volume. The reaction cocktail is pipetted in 4 steps in the following order:
(§3) All PKC assays (except the PKC-mu and the PKC-nu assay) additionally contain 1 mM CaCl2). 4 mM EDTA, 5 μg/mL Phosphatidylserine and 1 μg/mL 1,2-Dioleyl-glycerol. The CAMK1D, CAMK2A, CAMK2B, CAMK2D, CAMK2G, CAMK4, CAMKK1, CAMKK2, DAPK2, EEF2K, MYLK, MYLK2 and MYLK3 assays additionally contain 1 μg/mL Calmodulin and 0.5 mM CaCl2). The PRKG1 and PRKG2 assays additionally contain 1 μM cGMP. The DNA-PK assay additionally contained 2.5 μg/mL DNA.
(§4) The protein kinase reaction cocktails are incubated at 30° C. for 60 minutes. The reaction is stopped with 50 μL of 2% (v/v) H3PO4, plates are aspirated and washed two times with 200 μL 0.9% (w/v) NaCl. […] All protein kinase assays are performed with a BeckmanCoulter BIOMEK® 2000/SL robotic system. All protein kinases provided by ProQinase are expressed in Sf9 insect cells or in E. coli as recombinant GST-fusion proteins or His-tagged proteins, either as full-length or enzymatically active fragments. All kinases are produced from human cDNAs and purified by either GSH-affinity chromatography or immobilized metal. Affinity tags are removed from a number of kinases during purification. The purity of the protein kinases is examined by SDS-PAGE/Coomassie staining, the identity is checked by mass spectroscopy. Kinases from external vendors (CAR=Carna Biosciences Inc.; INV=Life Technologies (Invitrogen Corporation™); MIL=Merck-Millipore (Millipore Corporation™), see Table 1) are expressed, purified and quality-controlled by virtue of the vendors readings.
(§5) For each kinase, the median value of the cpm of three wells is defined as “low control” (n=3). This value reflects unspecific binding of radioactivity to the plate in the absence of a protein kinase but in the presence of the substrate. […] The difference between high and low control of each enzyme is taken as 100% activity. As part of the data evaluation, the low control of each kinase is subtracted from the high control value as well as from their corresponding “compound values”. The residual activity (in %) for each compound well is calculated by using the following formula: Res. Activity (%)=100×[(signal of compound−low control)/(high control−low control)]. Non Standard IC50s are calculated using a customized excel spreadsheet in conjunction with XLFit Add-in. Due to the low number of data points, (4) XL-Fit calculates a non standard IC50 using a four parametric equation where three parameters are locked to fixed values.
(§6) A: Minimum value of activity, Also known as Bottom. Fixed to 0 B: Maximum value of activity, Also known as Top. Fixed to 100 C: Inflexion point of the curve D: Hill Slope. Fixed to 1 Y: The dependent variable (i.e. what you measure as the signal) X: The independent variable (i.e. what you control, such as, dose, concentration, etc.)
(§7) The way to calculate the Non Standard IC50 is to assign random values to C parameter and repeat it iteratively. The algorithm then measures the differences in the sum of the residuals squared and will look for successive consecutive iterations where the change in the residuals is converging.

CDK16/CycY = target: T2, CDK16/CycY (Homo sapiens, UniProt Q00536); experiment: as above; settings: non standard IC50 from 4 concentrations, kinase 3.2 nM, ATP 0.3 μM
T2 construct: purchased ProQinase
Procedure: as §1, §2, §3, §4, §5, §6, §7

CDK19/CycC = target: T3, CDK19/CycC (Homo sapiens, UniProt Q9BWU1); experiment: as above; settings: non standard IC50 from 4 concentrations, kinase 30.9 nM, ATP 3 μM
T3 construct: purchased ProQinase
Procedure: as §1, §2, §3, §4, §5, §6, §7

CDK2/CycE1 = target: T4, CDK2/CycE1 (Homo sapiens, UniProt P24941); experiment: as above; settings: non standard IC50 from 4 concentrations, kinase 1.5 nM, ATP 1 μM
T4 construct: purchased ProQinase
Procedure: as §1, §2, §3, §4, §5, §6, §7

CDK6/CycD1 = target: T5, CDK6/CycD1 (Homo sapiens, UniProt Q00534); experiment: as above; settings: non standard IC50 from 4 concentrations, kinase 3.2 nM, ATP 3 μM
T5 construct: purchased ProQinase
Procedure: as §1, §2, §3, §4, §5, §6, §7

CDK7/CycH/MAT1 = target: T6, CDK7/CycH/MAT1 (Homo sapiens, UniProt P50613); experiment: as above; settings: non standard IC50 from 4 concentrations, kinase 3.3 nM, ATP 3 μM
T6 construct: purchased ProQinase
Procedure: as §1, §2, §3, §4, §5, §6, §7

CDK8/CycC = target: T7, CDK8/CycC (Homo sapiens, UniProt P49336); experiment: as above; settings: non standard IC50 from 4 concentrations, kinase 8.3 nM, ATP 1 μM
T7 construct: purchased ProQinase
Procedure: as §1, §2, §3, §4, §5, §6, §7

CDK9/CycT1 = target: T8, CDK9/CycT1 (Homo sapiens, UniProt P50750); experiment: as above; settings: non standard IC50 from 4 concentrations, kinase 2.2 nM, ATP 1 μM
T8 construct: purchased ProQinase
Procedure: as §1, §2, §3, §4, §5, §6, §7

CDK12/CycK = target: T9, CDK12/CycK (Homo sapiens, UniProt Q9NYV4); experiment: ProQinase radiometric protein kinase assay, 10 concentrations; settings: kinase 14.7 nM, ATP 0.3 μM
T9 construct: purchased ProQinase
Procedure: as §2, §3
(§8) The protein kinase reaction cocktails are incubated at 30° C. for 60 minutes. […] Kinases from external vendors (CAR=Carna Biosciences Inc.; INV=Life Technologies (Invitrogen Corporation™); MIL=Merck-Millipore (Millipore Corporation™), see Table 1) are expressed, purified and quality-controlled by virtue of the vendors readings.
(§9) CDK12 and CDK13 (ProQinase) are tested essentially as above but separately at 10 concentrations ([…] to […]) using semi-logarithmic dilutions. For the 10 points, the analysis the residual activities for each concentration and the compound IC50 values are calculated using QUATTRO® WORKFLOW™ V3.1.1. […]

CDK13/CycK = target: T10, CDK13/CycK (Homo sapiens, UniProt Q14004); experiment: as above; settings: kinase 29.2 nM, ATP 0.3 μM
T10 construct: purchased ProQinase
Procedure: as §2, §3, §8, §9

T8 sequence (P50750 whole entry): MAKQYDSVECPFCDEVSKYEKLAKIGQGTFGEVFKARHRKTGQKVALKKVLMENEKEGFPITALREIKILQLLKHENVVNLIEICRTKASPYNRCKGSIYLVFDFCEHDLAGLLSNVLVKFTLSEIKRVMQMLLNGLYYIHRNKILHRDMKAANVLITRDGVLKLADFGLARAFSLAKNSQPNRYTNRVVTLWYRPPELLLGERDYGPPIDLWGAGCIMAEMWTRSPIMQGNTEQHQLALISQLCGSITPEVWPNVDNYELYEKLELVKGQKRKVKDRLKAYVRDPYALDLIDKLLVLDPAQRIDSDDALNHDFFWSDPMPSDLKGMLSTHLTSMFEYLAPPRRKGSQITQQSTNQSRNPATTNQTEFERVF
T8 sequence (O60563 whole entry partner): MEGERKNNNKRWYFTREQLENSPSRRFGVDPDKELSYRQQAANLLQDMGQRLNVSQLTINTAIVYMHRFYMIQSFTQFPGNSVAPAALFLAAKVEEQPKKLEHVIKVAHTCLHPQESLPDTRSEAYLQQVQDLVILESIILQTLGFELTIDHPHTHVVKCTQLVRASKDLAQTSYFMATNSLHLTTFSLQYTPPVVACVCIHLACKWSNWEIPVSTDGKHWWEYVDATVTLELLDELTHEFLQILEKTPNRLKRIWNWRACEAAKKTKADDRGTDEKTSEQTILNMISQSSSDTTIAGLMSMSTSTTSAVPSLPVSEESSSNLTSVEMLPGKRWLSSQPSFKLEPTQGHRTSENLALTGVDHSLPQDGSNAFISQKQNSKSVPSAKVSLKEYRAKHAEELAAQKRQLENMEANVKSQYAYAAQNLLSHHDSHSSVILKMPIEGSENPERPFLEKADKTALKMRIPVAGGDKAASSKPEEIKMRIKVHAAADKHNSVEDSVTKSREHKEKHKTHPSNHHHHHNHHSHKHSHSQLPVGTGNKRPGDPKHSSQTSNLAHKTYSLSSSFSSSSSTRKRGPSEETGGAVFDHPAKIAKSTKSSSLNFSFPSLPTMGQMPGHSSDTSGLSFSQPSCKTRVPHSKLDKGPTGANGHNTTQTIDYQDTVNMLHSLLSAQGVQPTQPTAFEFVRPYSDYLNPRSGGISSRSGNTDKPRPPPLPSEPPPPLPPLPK
T9 sequence (Q9NYV4 whole entry): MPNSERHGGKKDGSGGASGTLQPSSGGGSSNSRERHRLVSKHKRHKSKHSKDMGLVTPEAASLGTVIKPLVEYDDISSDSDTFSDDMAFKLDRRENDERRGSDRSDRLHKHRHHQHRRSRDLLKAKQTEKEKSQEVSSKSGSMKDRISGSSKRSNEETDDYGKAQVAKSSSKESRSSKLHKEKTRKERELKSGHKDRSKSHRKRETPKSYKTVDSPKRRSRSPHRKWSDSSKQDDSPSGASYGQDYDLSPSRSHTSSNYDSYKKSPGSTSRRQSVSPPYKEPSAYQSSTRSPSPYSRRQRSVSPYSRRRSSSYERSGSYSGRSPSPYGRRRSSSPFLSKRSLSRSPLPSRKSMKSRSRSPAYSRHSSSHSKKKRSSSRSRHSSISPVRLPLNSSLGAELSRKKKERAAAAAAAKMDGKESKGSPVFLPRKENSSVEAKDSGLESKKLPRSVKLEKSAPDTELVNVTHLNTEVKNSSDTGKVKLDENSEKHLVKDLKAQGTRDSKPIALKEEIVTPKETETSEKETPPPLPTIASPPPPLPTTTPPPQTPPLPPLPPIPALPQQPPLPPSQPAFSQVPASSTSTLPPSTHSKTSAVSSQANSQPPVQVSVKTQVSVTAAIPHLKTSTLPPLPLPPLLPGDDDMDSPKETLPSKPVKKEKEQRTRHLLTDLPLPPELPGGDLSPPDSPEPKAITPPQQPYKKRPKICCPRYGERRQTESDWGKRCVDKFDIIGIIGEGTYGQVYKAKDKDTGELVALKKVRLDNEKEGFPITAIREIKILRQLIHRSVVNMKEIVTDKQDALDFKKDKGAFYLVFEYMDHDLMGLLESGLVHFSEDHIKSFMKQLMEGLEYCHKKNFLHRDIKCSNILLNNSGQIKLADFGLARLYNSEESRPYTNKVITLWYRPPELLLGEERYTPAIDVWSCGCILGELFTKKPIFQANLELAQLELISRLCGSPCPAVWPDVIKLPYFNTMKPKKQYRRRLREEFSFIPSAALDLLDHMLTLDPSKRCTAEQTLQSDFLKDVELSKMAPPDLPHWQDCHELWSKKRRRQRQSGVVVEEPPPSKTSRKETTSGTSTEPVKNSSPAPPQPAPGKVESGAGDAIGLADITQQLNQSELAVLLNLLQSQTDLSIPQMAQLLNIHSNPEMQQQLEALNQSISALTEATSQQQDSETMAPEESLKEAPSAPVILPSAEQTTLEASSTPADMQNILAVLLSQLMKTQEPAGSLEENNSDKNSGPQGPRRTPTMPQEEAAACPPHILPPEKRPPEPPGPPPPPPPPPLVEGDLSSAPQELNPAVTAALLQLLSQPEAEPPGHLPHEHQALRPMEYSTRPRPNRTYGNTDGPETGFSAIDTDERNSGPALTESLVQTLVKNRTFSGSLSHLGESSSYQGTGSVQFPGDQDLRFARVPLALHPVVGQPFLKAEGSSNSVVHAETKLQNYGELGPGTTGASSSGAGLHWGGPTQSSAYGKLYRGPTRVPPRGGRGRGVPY
T9 sequence (O75909 whole entry partner): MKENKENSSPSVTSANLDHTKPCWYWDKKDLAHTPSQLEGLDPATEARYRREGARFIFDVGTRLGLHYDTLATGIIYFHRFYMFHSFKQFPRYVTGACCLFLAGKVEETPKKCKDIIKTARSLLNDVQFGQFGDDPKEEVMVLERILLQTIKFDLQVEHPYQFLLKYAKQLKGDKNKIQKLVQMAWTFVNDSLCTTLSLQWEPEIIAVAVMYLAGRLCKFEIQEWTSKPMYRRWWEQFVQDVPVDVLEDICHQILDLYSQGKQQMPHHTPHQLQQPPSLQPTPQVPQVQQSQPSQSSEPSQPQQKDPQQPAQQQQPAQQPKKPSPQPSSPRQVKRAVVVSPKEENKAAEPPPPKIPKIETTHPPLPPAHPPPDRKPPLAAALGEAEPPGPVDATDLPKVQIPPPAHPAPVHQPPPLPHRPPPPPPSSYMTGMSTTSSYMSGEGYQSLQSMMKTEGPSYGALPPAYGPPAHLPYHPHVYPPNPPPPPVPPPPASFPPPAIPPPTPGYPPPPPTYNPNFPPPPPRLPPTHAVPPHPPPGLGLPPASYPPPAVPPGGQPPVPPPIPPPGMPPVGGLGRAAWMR
T10 sequence (Q14004 whole entry): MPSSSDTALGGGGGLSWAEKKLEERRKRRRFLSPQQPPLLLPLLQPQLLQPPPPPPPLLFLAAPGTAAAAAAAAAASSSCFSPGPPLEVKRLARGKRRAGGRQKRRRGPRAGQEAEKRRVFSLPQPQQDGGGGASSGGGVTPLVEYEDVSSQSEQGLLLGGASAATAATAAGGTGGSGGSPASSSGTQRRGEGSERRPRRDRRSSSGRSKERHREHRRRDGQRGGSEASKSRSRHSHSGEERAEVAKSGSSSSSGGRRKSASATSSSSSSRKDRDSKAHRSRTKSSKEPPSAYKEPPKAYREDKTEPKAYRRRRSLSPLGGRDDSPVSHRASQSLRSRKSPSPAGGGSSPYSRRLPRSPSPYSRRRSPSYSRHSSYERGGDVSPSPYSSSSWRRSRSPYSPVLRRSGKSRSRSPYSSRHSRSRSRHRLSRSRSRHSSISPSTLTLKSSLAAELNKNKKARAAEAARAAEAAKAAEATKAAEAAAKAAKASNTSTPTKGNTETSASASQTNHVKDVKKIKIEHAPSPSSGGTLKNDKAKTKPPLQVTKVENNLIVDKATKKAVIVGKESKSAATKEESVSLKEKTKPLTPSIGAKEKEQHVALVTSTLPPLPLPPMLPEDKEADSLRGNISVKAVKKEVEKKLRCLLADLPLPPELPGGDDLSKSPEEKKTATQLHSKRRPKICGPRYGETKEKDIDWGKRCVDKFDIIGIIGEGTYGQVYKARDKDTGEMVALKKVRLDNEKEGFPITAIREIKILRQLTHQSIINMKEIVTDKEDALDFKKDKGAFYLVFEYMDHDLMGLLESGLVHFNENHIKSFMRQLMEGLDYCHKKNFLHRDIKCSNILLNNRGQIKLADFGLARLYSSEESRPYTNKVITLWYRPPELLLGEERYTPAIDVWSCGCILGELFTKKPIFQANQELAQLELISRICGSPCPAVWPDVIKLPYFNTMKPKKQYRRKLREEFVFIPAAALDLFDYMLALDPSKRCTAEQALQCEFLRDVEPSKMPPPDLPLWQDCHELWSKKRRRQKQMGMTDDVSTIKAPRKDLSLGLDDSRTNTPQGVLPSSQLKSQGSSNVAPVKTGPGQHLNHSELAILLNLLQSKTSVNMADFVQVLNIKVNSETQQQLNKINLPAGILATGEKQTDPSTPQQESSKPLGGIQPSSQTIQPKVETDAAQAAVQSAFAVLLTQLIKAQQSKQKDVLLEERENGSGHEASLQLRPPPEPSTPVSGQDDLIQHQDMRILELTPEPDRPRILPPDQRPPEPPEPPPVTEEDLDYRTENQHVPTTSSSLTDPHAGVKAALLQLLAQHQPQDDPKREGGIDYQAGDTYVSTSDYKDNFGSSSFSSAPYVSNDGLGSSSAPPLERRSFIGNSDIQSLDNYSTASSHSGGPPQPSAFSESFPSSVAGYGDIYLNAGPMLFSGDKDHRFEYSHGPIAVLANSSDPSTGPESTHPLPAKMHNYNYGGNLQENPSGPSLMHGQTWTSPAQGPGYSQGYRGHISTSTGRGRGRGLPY
T10 sequence (O75909 whole entry partner): as the sequence (O75909 whole entry partner) above

Molecule Cc1cc(NC2CCN(C(=O)O[C@H]3CCN(C(=O)/C=C/CN(C)C)C3)CC2)n2ncc(C(C)C)c2n1 [Example 1, [(3S)-1-[(E)-4-(dimethylamino)but-2-enoyl]pyrrolidin-3-yl] 4-[(3-isopropyl-5-methyl-pyrazolo[1,5-a]pyrimidin-7-yl)amino]piperidine-1-carboxylate] has an IC50 (CDK1/CycB1) of no less than 20 µM, an IC50 (CDK16/CycY) of 9.07 µM and an IC50 (CDK19/CycC) of 7.41 µM. For the same molecule, the IC50 (CDK2/CycE1) was no less than 20 µM, the IC50 (CDK6/CycD1) was 8.08 µM and the IC50 (CDK7/CycH/MAT1) was 0.0928 µM. The IC50 (CDK8/CycC) was 10.9 µM, the IC50 (CDK9/CycT1) was 6.32 µM and the IC50 (CDK12/CycK) was 14.8 µM. It also gave an IC50 (CDK13/CycK) of no less than 20 µM.

Reference: patent US20210032257A1, “(E)-1-(4-(DIMETHYLAMINO)BUT-2-ENOYL)PYRROLIDIN-3-YL 4-((3-ISOPROPYL-5-METHYLPYRAZOLO[1,5-A]PYRIMIDIN-7-YL)AMINO)PIPERIDINE-1-CARBOXYLATE FOR INHIBITING CDK7” (Eli Lilly and Company, priority 2017, published 2021)
